Laboratory results reported in paper PMC7835894 (Molecules, 2021).

Assays:
[1] = tested on: Caco-2; experiment: MTT antiproliferation assay; type: cell-based, human; conditions: for SI (selectivity index): Caco-2, SI = IC50 (WI-38)/IC50 (cancer cell line); for IC50: Homo sapiens, Caco-2, MTT, 24 h, single agent, mean ± SEM
Protocol: (§1) The antiproliferation and cytotoxicity were assessed using 3-(4,5-dimethylthiazol-2-yl)-2,5-diphenyltetrazolium bromide (MTT, Serva) colorimetric assay. To investigate the antiproliferation, all cell lines were seeded at a density of 20,000 cells per well in 96-well plates and allowed to adhere overnight. […] These concentrations were prepared by diluting the stock solutions with serum-free culture media. The negative control cells were those treated with 0.1% DMSO solvent alone. The treated cells were handled in reduced light and maintained under standard culture growth conditions for 24 h. After the incubation period, MTT powder was prepared as a stock solution (5 mg/mL) and 20 μL of the MTT working reagent (final concentration 0.5 mg/mL) was added to each well. This was followed by incubation with MTT reagent for 4 h in a humidified atmosphere (37 °C, 5% CO2) with subsequent addition of 150 μL of DMSO solubilizing solvent and incubation for 20 min. The absorbance of solubilized violet formazan crystals was measured at 540 nm with Biotek 800 TS microplate reader. IC50 was calculated as the concentration of retinoid that produced 50% cell growth inhibition. For cytotoxicity assessment, WI-38 normal human fibroblast cells were used for the calculation of SI which is the ratio of IC50 retinoid (WI-38)/IC50 retinoid (cancer cell line).

[2] = tested on: DU-145; experiment: MTT antiproliferation assay; type: cell-based, human; conditions: for SI (selectivity index): DU-145, SI = IC50 (WI-38)/IC50 (cancer cell line); for IC50: Homo sapiens, DU-145, MTT, 24 h, mean ± SEM
Protocol: as §1

[3] = tested on: Huh7; experiment: MTT antiproliferation assay; type: cell-based, human; conditions: for IC50: Homo sapiens, Huh-7, Huh7, MTT, 24 h, mean ± SEM; for SI (selectivity index): Huh7, SI = IC50 (WI-38)/IC50 (cancer cell line)
Protocol: as §1

[4] = tested on: MCF-7; experiment: MTT antiproliferation assay; type: cell-based, human; conditions: for IC50: Homo sapiens, MCF7, MCF-7, MTT, 24 h, mean ± SEM; for SI (selectivity index): MCF-7, SI = IC50 (WI-38)/IC50 (cancer cell line)
Protocol: as §1

[5] = tested on: HCT-116; experiment: MTT antiproliferation assay; type: cell-based, human; conditions: for SI (selectivity index): HCT-116, SI = IC50 (WI-38)/IC50 (cancer cell line); for IC50: Homo sapiens, HCT-116, MTT, 24 h, mean ± SEM
Protocol: as §1

[6] = tested on: PC3; experiment: MTT antiproliferation assay; type: cell-based, human; conditions: for IC50: Homo sapiens, PC-3, PC3, MTT, 24 h, mean ± SEM; for SI (selectivity index): PC3, SI = IC50 (WI-38)/IC50 (cancer cell line)
Protocol: as §1

[7] = tested on: A549; experiment: MTT antiproliferation assay; type: cell-based, human; conditions: for SI (selectivity index): A549, SI = IC50 (WI-38)/IC50 (cancer cell line); for IC50: Homo sapiens, A549, MTT, 24 h, mean ± SEM
Protocol: as §1

[8] = tested on: Vero; experiment: MTT antiproliferation/cytotoxicity assay; type: cell-based, African green monkey; conditions: Chlorocebus sabaeus, Vero normal cells, 24 h, mean ± SEM
Protocol: as §1

[9] = tested on: Caspase-3 (Cas-3); experiment: Gene expression analysis (qPCR) in Caco-2 cells; type: cell-based, human; conditions: Caco-2, IC50, 24 h, relative to 0.1% DMSO control
Protocol: (§2) Sensitive cancer cell line (Caco-2) was used for gene expression analysis of different genes controlling differentiation, apoptosis, tumor resistance, aggressiveness, and metastasis. […] After incubation, cells were harvested, and the total RNA was purified using Favor-Prep^TM Blood/Cultured cell total RNA purification mini kit (Favorgen Biotech Corp., Ping-Tung, Taiwan). RNA was reverse transcribed into the first-strand cDNA using Revert Aid First Strand cDNA Synthesis Kit (Thermo Scientific, Waltham, MA, USA). HERA^PLUS SYBR® Green qPCR Kit (Willowfort, Nottingham, UK) was utilized in quantitative polymerase chain reactions (qPCR). Gene expression was analyzed and quantified using the 2ˆ^−ΔΔCT method.

[10] = tested on: WRN; experiment: Gene expression analysis (qPCR) in Caco-2 cells; type: cell-based, human; conditions: Caco-2, IC50, 24 h, relative to 0.1% DMSO control
Protocol: as §2

[11] = tested on: cytochrome-C (Cyt-C); experiment: Gene expression analysis (qPCR) in Caco-2 cells; type: cell-based, human; conditions: Caco-2, IC50, 24 h, relative to 0.1% DMSO control
Protocol: as §2

[12] = tested on: Caspase-8 (Cas-8); experiment: Gene expression analysis (qPCR) in Caco-2 cells; type: cell-based, human; conditions: Caco-2, IC50, 24 h, relative to 0.1% DMSO control
Protocol: as §2

[13] = tested on: p53; experiment: Gene expression analysis (qPCR) in Caco-2 cells; type: cell-based, human; conditions: Caco-2, IC50, 24 h, relative to 0.1% DMSO control
Protocol: as §2

[14] = tested on: RAI2; experiment: Gene expression analysis (qPCR) in Caco-2 cells; type: cell-based, human; conditions: Caco-2, IC50, 24 h, relative to 0.1% DMSO control
Protocol: as §2

[15] = tested on: RAR-β; experiment: Gene expression analysis (qPCR) in Caco-2 cells; type: cell-based, human; conditions: Caco-2, IC50, 24 h, relative to 0.1% DMSO control, normalized to GAPDH
Protocol: as §2

[16] = tested on: E-cadherin; experiment: Gene expression analysis (qPCR) in Caco-2 cells; type: cell-based, human; conditions: Caco-2, IC50, 24 h, relative to 0.1% DMSO control
Protocol: as §2

[17] = tested on: Bax; experiment: Gene expression analysis (qPCR) in Caco-2 cells; type: cell-based, human; conditions: Caco-2, IC50, 24 h, relative to 0.1% DMSO control
Protocol: as §2

[18] = tested on: RAR-γ; experiment: Gene expression analysis (qPCR) in Caco-2 cells; type: cell-based, human; conditions: Caco-2, IC50, 24 h, relative to 0.1% DMSO control, normalized to GAPDH
Protocol: as §2

[19] = tested on: cleaved Cas-3; experiment: Western blotting in Caco-2 cells; type: cell-based, human; conditions: Caco-2, IC50 dose, 24 h, normalized to β-actin
Protocol: The expression of Bax, Bcl-2, Cyt-C, cleaved cas-3 and p53 proteins in Caco-2 cells was determined using Western blot procedure according to the methods mentioned previously. […] Then, cells were lysed in 150 µL pre-cold lysis buffer [Tris-Base “10 mM”, NaCl “100 mM”, Ethylene glycol bis (2-aminoethyl) tetraacetic acid (EGTA) “20 mM”, ethylenediaminetetraacetic acid (EDTA) “25 mM”, 1% (v/v) NP-40, and 1% (v/v) Triton X-100; pH 7.4] immediately supplemented with 1:450 protease and phosphatase inhibitors cocktail (Sigma-Aldrich). Caco-2 cells were immediately collected by cell scraper, sonicated, and centrifuged at 12,000 rpm for 15 min. Total proteins in the produced supernatant were determined colorimetrically using the Pierce™ 660 nm Assay (Thermo Scientific, Rockford, IL, USA). Equal amounts (30 µg) of protein were mixed with sodium dodecyl sulfate (SDS)-loading buffer containing Tris-HCl, dithiothreitol (DTT), SDS, glycerol, and Bromophenol blue. The protein samples were then denatured by boiling for 5 min, allowed to cool on ice for 10 min and separated by SDS-polyacrylamide gel electrophoresis (Cleaver Scientific Ltd., Rugby, Warwickshire, UK), and transferred onto Polyvinylidene Difluoride (PVDF) membranes for 30 min using Trans-Blot® SD semi-dry transfer cell (Biorad). Membranes were then blocked with 5% (w/v) blotting-grade dry milk (Biorad) in Tris-buffered saline-Tween-20 (TBS-T), washed and incubated with antibodies against Bax, Bcl-2, cleaved caspase-3 (1:100–1:2000, Cell Signaling Technology), cytochrome c (1:500, Santa Cruz Biotechnology), p53 (1:1500, Abcam) and β-actin (1:2500, Sigma-Aldrich) for 16–17 h at 4 °C in a humidified chamber. The blots were washed, incubated at RT with matched horseradish peroxidase (HRP)-linked secondary antibodies (Dako, Denmark) for 1.5 h, and the bands were visualized with chemiluminescence Western Lightning ECL (Perkin Elmer, Waltham, MA) for 1 min in Chemi-Doc imager (Biorad, Hercules, CA, USA) and finally analyzed with Bio-Rad Image Lab software with normalization to β-actin.

Row | SMILES | SI (selectivity index) [1] | IC50 [1] [µM] | SI (selectivity index) [2] | IC50 [2] [µM] | IC50 [3] [µM] | SI (selectivity index) [3] | IC50 [4] [µM] | SI (selectivity index) [4] | SI (selectivity index) [5] | IC50 [5] [µM] | IC50 [6] [µM] | SI (selectivity index) [6] | SI (selectivity index) [7] | IC50 [7] [µM] | IC50 [8] [µM] | Cas-3 gene expression, fold change [9] | WRN gene expression, fold change [10] | Cyt-C gene expression, fold change [11] [fold] | Cas-8 gene expression, fold change [12] | p53 gene expression, fold change [13] | further results
1 | CC1(C)CCC(C)(C)c2cc(C#Cc3cccc(C(=O)O)c3)ccc21 [EC19, 3-(5,5,8,8-tetramethyl-5,6,7,8-tetrahydronaphthalen-2-ylethynyl) benzoic acid] | 4.5 ± 0.01 | 10.8 ± 0.1 | 0.56 ± 0.001 | 86.9 ± 2 | > 100 | 0.14 ±0.01 | 9.4 ± 0.13 | 5.18 ± 0.1 | <1 | > 100 | > 100 | <1 | <1 | > 100 | > 100 | 8.6 fold | ~ 40 fold | 3.6 | 7.1 fold | 1.2 fold | RAI2 gene expression, fold change [14]: 4.4 fold; RAR-β gene expression, fold increase [15]: 131 fold; E-cadherin gene expression, fold change [16]: 54 fold; Bax gene expression, fold change [17]: 1.9 fold; RAR-γ gene expression, fold increase [18]: without affecting; activated (cleaved) Cas-3 protein level [19]: increment in the level of activated Cas-3
2 | CC1=C(/C=C/C(C)=C/C=C/C(C)=C/C(=O)O)C(C)(C)CCC1 [ATRA, All-trans retinoic acid, reference compound] | – | 58 ± 1 | – | > 100 | > 100 | – | 99 ± 0.26 | – | – | > 100 | > 100 | – | – | 84.7 ± 3.2 | > 100 | – | – | – | – | – | activated (cleaved) Cas-3 protein level [19]: increment in the level of activated Cas-3
3 | CC1(C)CCC(C)(C)c2cc(C#Cc3ccc(C(=O)O)cc3)ccc21 [EC23, 4-(5,5,8,8-tetramethyl-5,6,7,8-tetrahydronaphthalen-2-ylethynyl) benzoic acid] | 0.54 ±0.01 | 14.7 ± 0.73 | <1 | > 100 | > 100 | 0.02 ± 0.001 | 5.56 ± 0.01 | 1.44 ± 0.004 | 0.18 ± 0.003 | 44.5 ± 1.1 | > 100 | <1 | <1 | > 100 | 35.2 ± 1.02 | did not induce significant expression | ~ 40 fold | 2.8 | did not induce significant expression | did not induce p53 upregulation | RAI2 gene expression, fold change [14]: 1.6 fold; RAR-β gene expression, fold increase [15]: no effect; E-cadherin gene expression, fold change [16]: 16.3 fold; Bax gene expression, fold change [17]: not able to induce any significant change; RAR-γ gene expression, fold increase [18]: 2.3 fold
